For twelve compounds, fold induction and IC50 results are on record in patent US20220324835A1 (Nurix Therapeutics, Inc., priority 2018, published 2022).

In assay [1] the test system is T-cell. As to the kind of experiment: CD25 cell surface staining on T-cells stimulated with anti-CD3 antibody alone (Biological Example 2). As to conditions: Homo sapiens, T-cell; 1 μM Cbl-b inhibitor; fold change over baseline (anti-CD3/anti-CD28 stimulated T-cells without inhibitor); read-out: CD25 staining Anti-CD3 stimulation. In kind it is cell-based, human.
Assay [2] concerns the target T1, Cbl-b (Homo sapiens, UniProt Q13191). As to the kind of experiment: Cbl-b inhibition assay (Cbl-b activity assay, FRET, Biological Example 1; 100 mM NaCl, 60 nM Src kinase). To be noted: upper bound stated in text lists; read-out: IC50 values in the Cbl-b inhibition assay of Biological Example 1. The assay is classed as biochemical. Summed up:
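N-terminally biotinylated Avi-tagged Cbl-b was mixed with Src kinase, UbcH5B covalently conjugated to Bodipy-fluorescein ubiquitin, and streptavidin-terbium. Src phosphorylation lets Cbl-b bind UbcH5B-Ub, giving terbium-fluorescein FRET; inhibition is read as loss of FRET signal.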

Assay [3] relates to T-cell. As to the kind of experiment: CD25 cell surface staining on T-cells co-stimulated with anti-CD3 and anti-CD28 antibody (Biological Example 2). In kind it is cell-based, human. To be noted: Homo sapiens, T-cell, fold change over baseline (anti-CD3/anti-CD28 stimulated T-cells without inhibitor), read-out: CD25 staining Anti-CD3/Anti-CD28 stimulation; for fold induction at 0.3 µM: 0.3 μM Cbl-b inhibitor; for fold induction at 1 µM: 1 μM Cbl-b inhibitor. A digest of the protocol:
(§1)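 T-cells were stimulated with anti-CD3 antibody alone or with anti-CD28 antibody, in the presence or absence of Cbl-b inhibitor. IL-2 secretion or CD25 surface staining was measured, and values expressed as fold over the uninhibited baseline […].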

In assay [4] the target is T1, Cbl-b. As to the kind of experiment: Cbl-b activity assay (Cbl-b inhibition assay), TR-FRET of Cbl-b interaction with UbcH5B-Ub. In kind it is biochemical. To be noted: assay buffer with 100 mM NaCl, 60 nM Src kinase; read-out: Cbl-b activity IC50. Summed up:
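UbcH5B (C85K) conjugated to N-terminally Bodipy-Fluorescein-labeled ubiquitin served as the fluorescent partner. After compound preincubation, Src kinase (60 nM) with 1 mM ATP and 5 mM MgCl2 (final) was added for 1.5 h, followed by a further 1 h incubation. Some values were obtained with 50 mM NaCl and 30 nM Src.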
(In general: In TR-FRET formats the signal depends on donor and acceptor labels being close together.)

Assay [5] deals with T-cell. As to the kind of experiment: IL-2 secretion from T-cells co-stimulated with anti-CD3 and anti-CD28 antibody (Biological Example 2). As to conditions: Homo sapiens, T-cell, fold change over baseline (anti-CD3/anti-CD28 stimulated T-cells without inhibitor), read-out: IL-2 secretion Anti-CD3/Anti-CD28 stimulation; for fold induction at 0.3 µM: 0.3 μM Cbl-b inhibitor; for fold induction at 1 µM: 1 μM Cbl-b inhibitor. The assay is classed as cell-based, human. A digest of the protocol: as §1

Assay [6] deals with T-cell. Put plainly: IL-2 secretion from T-cells stimulated with anti-CD3 antibody alone (Biological Example 2). In kind it is cell-based, human. As to conditions: Homo sapiens, T-cell; 1 μM Cbl-b inhibitor; fold change over baseline (anti-CD3/anti-CD28 stimulated T-cells without inhibitor); read-out: IL-2 secretion Anti-CD3 stimulation.

T1 sequence (Q13191 36-427): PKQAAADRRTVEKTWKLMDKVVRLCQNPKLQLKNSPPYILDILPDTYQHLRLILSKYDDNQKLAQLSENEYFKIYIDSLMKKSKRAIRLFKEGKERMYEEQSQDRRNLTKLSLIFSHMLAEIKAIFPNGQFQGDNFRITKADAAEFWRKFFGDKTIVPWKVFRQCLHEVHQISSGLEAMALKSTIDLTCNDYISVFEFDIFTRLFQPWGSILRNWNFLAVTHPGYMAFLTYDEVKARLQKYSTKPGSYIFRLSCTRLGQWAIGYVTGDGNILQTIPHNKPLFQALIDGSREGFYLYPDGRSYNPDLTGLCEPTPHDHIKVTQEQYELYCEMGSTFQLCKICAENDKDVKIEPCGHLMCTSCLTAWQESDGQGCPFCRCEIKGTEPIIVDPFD

In the case of `CC1CN(c2cc3c(c(C(F)(F)F)c2)CN(c2cccc(C4(Cc5nncn5C)COC4)c2)C3=O)C1C` (stereo not drawn) [Example 608, 6-(2,3-dimethylazetidin-1-yl)-2-(3-(3-((4-methyl-4H-1,2,4-triazol-3-yl)methyl)oxetan-3-yl)phenyl)-4-(trifluoromethyl)isoindolin-1-one], the fold induction at 1 µM was in the range of 0.601 to 0.8 in the assay on T-cell [1], 1.01 to 1.3 in the assay with T-cell [3], 2.51 to 5 with T-cell [5] and 0.051 to 0.1 with T-cell [6]. The IC50 on Cbl-b [2] is at most 100 nM; on Cbl-b [4], under 100 nM. The results for the fold induction at 0.3 µM in the assay on T-cell [3] and in the assay on T-cell [5] were 1.01 to 1.3 and 1.01 to 2.5, respectively.

As to `Cn1cnnc1CC1(c2cccc(N3Cc4c(cc(N5CC(C(F)F)C5)nc4C4CC4)C3=O)c2)COC1` [Example 609, 4-cyclopropyl-6-(3-(difluoromethyl)azetidin-1-yl)-2-(3-(3-((4-methyl-4H-1,2,4-triazol-3-yl)methyl)oxetan-3-yl)phenyl)-2,3-dihydro-1H-pyrrolo[3,4-c]pyridin-1-one], the fold induction at 1 µM in the assay on T-cell [1] fell in the range of 0.801 to 1; with T-cell [3], 1.01 to 1.3; in the assay with T-cell [5] it was 5 to 7.5; in the assay on T-cell [6], 0.101 to 0.15. Besides, the figures for the IC50 on Cbl-b [2] and on Cbl-b [4] were at most 100 nM and under 100 nM, respectively. Also, the fold induction at 0.3 µM fell in the range of 1.01 to 1.3 in the assay on T-cell [3] and 2.51 to 5 in the assay on T-cell [5].

For `Cn1cnnc1CC1(c2cccc(NC(=O)c3cc(N4CC(C(F)F)C4)nc(C4CC4)n3)c2)COC1` [Example 610, 2-cyclopropyl-6-(3-(difluoromethyl)azetidin-1-yl)-N-(3-(3-((4-methyl-4H-1,2,4-triazol-3-yl)methyl)oxetan-3-yl)phenyl)pyrimidine-4-carboxamide], the fold induction at 1 µM was 0.801 to 1 with T-cell [1], 1.01 to 1.3 with T-cell [3], over 7.5 with T-cell [5] and 0.101 to 0.15 in the assay with T-cell [6]. For the same compound, the IC50 on Cbl-b [2] was at most 100 nM; at Cbl-b [4], under 100 nM. Also, the fold induction at 0.3 µM lay in the range of 1.01 to 1.3 with T-cell [3] and 2.51 to 5 with T-cell [5].

Regarding `Cn1cnnc1CC1(c2cccc(N3Cc4c(cc(C5CCC5)cc4C(F)(F)F)C3=O)c2)COC1` [Example 611, 6-cyclobutyl-2-(3-(3-((4-methyl-4H-1,2,4-triazol-3-yl)methyl)oxetan-3-yl)phenyl)-4-(trifluoromethyl)isoindolin-1-one], the fold induction at 1 µM was in the range of 0.801 to 1 with T-cell [1], 1.31 to 1.5 with T-cell [3], 2.51 to 5 in the assay with T-cell [5] and 0.101 to 0.15 in the assay with T-cell [6]. Also, the IC50 at Cbl-b [2] was at most 100 nM; at Cbl-b [4] it was under 100 nM. In addition, the fold induction at 0.3 µM fell in the range of 1.01 to 1.3 with T-cell [3] and 2.51 to 5 with T-cell [5].

In the case of `Cn1cnnc1CC1(c2cccc(N3Cc4c(cc(C5=CCOC5)cc4C(F)(F)F)C3=O)c2)COC1` [Example 612, 6-(2,5-dihydrofuran-3-yl)-2-(3-(3-((4-methyl-4H-1,2,4-triazol-3-yl)methyl)oxetan-3-yl)phenyl)-4-(trifluoromethyl)isoindolin-1-one], the fold induction at 1 µM was in the range of 0.801 to 1 in the assay on T-cell [1], 1.31 to 1.5 with T-cell [3], 2.51 to 5 with T-cell [5] and 0.101 to 0.15 in the assay on T-cell [6]. Besides, the IC50 was at most 100 nM at Cbl-b [2] and under 100 nM on Cbl-b [4]. For the same compound, the fold induction at 0.3 µM fell in the range of 1.01 to 1.3 with T-cell [3] and 2.51 to 5 in the assay on T-cell [5].

Regarding `Cn1cnnc1CC1(c2cccc(N3Cc4c(cc(C5CCOC5)cc4C(F)(F)F)C3=O)c2)COC1` (stereo not drawn) [Example 613, 2-(3-(3-((4-methyl-4H-1,2,4-triazol-3-yl)methyl)oxetan-3-yl)phenyl)-6-(THF-3-yl)-4-(trifluoromethyl)isoindolin-1-one], the fold induction at 1 µM is 0.801 to 1 in the assay with T-cell [1], 1.01 to 1.3 with T-cell [3], 5 to 7.5 with T-cell [5] and 0.101 to 0.15 in the assay on T-cell [6]. Also, the values for the half-maximal inhibitory concentration (IC50) on Cbl-b [2] and at Cbl-b [4] were at most 100 nM and under 100 nM, respectively. The fold induction at 0.3 µM in the assay with T-cell [3] was 1.01 to 1.3; with T-cell [5], 2.51 to 5.

Take `Cn1cnnc1CC1(c2cccc(N3Cc4c(cc(C5=CCCOC5)cc4C(F)(F)F)C3=O)c2)COC1` [Example 614]: the fold induction at 1 µM lay in the range of 0.801 to 1 with T-cell [1], 1.01 to 1.3 in the assay on T-cell [3], 2.51 to 5 in the assay on T-cell [5] and 0.101 to 0.15 with T-cell [6]. Moreover, the results for the IC50 at Cbl-b [2] and on Cbl-b [4] were at most 100 nM and under 100 nM, respectively. Also, the fold induction at 0.3 µM was 1.01 to 1.3 with T-cell [3] and 2.51 to 5 with T-cell [5].

For `Cn1cnnc1[C@@H](F)C1(c2cccc(N3Cc4c(cc(CN5CCC6(CC6)C5)cc4C(F)(F)F)C3=O)c2)COC1` [Example 618, (S)-6-((5-azaspiro[2.4]heptan-5-yl)methyl)-2-(3-(3-(fluoro(4-methyl-4H-1,2,4-triazol-3-yl)methyl)oxetan-3-yl)phenyl)-4-(trifluoromethyl)isoindolin-1-one], the fold induction at 1 µM in the assay with T-cell [1] was over 1; in the assay on T-cell [3], 1.31 to 1.5; in the assay with T-cell [5], over 7.5; with T-cell [6], 0.101 to 0.15. The IC50 at Cbl-b [2] is at most 100 nM; at Cbl-b [4], under 100 nM. Also, the fold induction at 0.3 µM fell in the range of 1.01 to 1.3 in the assay with T-cell [3] and 5 to 7.5 with T-cell [5].

For `Cn1cnnc1CC1(c2cccc(N3Cc4c(cc(CN5CC6CC5CO6)cc4C(F)(F)F)C3=O)c2)COC1` (stereo not drawn) [Example 619, 6-((2-oxa-5-azabicyclo[2.2.1]heptan-5-yl)methyl)-2-(3-(3-((4-methyl-4H-1,2,4-triazol-3-yl)methyl)oxetan-3-yl)phenyl)-4-(trifluoromethyl)isoindolin-1-one], the fold induction at 1 µM with T-cell [1] was 0.801 to 1; in the assay on T-cell [3] it was 1.01 to 1.3; in the assay on T-cell [5], 5 to 7.5; in the assay on T-cell [6], 0.051 to 0.1. Further, the values for the IC50 on Cbl-b [2] and at Cbl-b [4] were at most 100 nM and under 100 nM, respectively. For the same compound, the fold induction at 0.3 µM in the assay on T-cell [3] is 1.01 to 1.3; in the assay with T-cell [5], 2.51 to 5.

As for `Cn1cnnc1CC1(c2cccc(N3Cc4c(cc(CN5CCC[C@@H](F)C5)cc4C(F)(F)F)C3=O)c2)COC1` [Example 623, (R)-6-((3-fluoropiperidin-1-yl)methyl)-2-(3-(3-((4-methyl-4H-1,2,4-triazol-3-yl)methyl)oxetan-3-yl)phenyl)-4-(trifluoromethyl)isoindolin-1-one], the fold induction at 1 µM in the assay with T-cell [1] is over 1; in the assay on T-cell [3] it was 1.31 to 1.5; in the assay on T-cell [5], over 7.5; in the assay with T-cell [6] it was over 0.201. For the same compound, the IC50 on Cbl-b [2] was at most 100 nM; on Cbl-b [4] it was under 100 nM. Moreover, the fold induction at 0.3 µM in the assay with T-cell [3] was 1.31 to 1.5; in the assay with T-cell [5], over 7.5.

As for `CCN1CCN(Cc2cc3c(c(C(F)(F)F)c2)CN(c2cccc(C4(Cc5nncn5C)COC4)c2)C3=O)CC1` [Example 624, 6-((4-ethylpiperazin-1-yl)methyl)-2-(3-(3-((4-methyl-4H-1,2,4-triazol-3-yl)methyl)oxetan-3-yl)phenyl)-4-(trifluoromethyl)isoindolin-1-one], the fold induction at 1 µM with T-cell [1] was over 1; in the assay with T-cell [3] it was 1.31 to 1.5; with T-cell [5], over 7.5; with T-cell [6] it was over 0.201. Also, the IC50 at Cbl-b [2] is at most 100 nM; on Cbl-b [4], under 100 nM. Besides, the fold induction at 0.3 µM was in the range of 1.31 to 1.5 in the assay with T-cell [3] and 5 to 7.5 in the assay on T-cell [5].

With `CN1CCN(Cc2cc3c(c(C(F)(F)F)c2)CN(c2cccc(C4(Cc5nncn5C)COC4)c2)C3=O)CC1` [Example 625, 2-(3-(3-((4-methyl-4H-1,2,4-triazol-3-yl)methyl)oxetan-3-yl)phenyl)-6-((4-methylpiperazin-1-yl)methyl)-4-(trifluoromethyl)isoindolin-1-one], the fold induction at 1 µM with T-cell [1] is over 1; in the assay on T-cell [3], 1.31 to 1.5; in the assay on T-cell [5] it was over 7.5; with T-cell [6], over 0.201. The results for the IC50 at Cbl-b [2] and on Cbl-b [4] were at most 100 nM and under 100 nM, respectively. Also, the fold induction at 0.3 µM in the assay on T-cell [3] lay within 1.31 to 1.5; in the assay with T-cell [5] it was 2.51 to 5.

One may read the IC50 as the concentration at which inhibition is half-maximal.
